Experiments:
SOS1 = molecular target: T1, SOS1 (Homo sapiens, UniProt Q07889); assay: SOS-catalyzed nucleotide exchange assay (HTRF, SOS1-mediated GTP loading of KRAS G12D); assay type: biochemical; conditions: GST-KRAS G12D, HIS-SOS1cat, EDA-GTP-DY-647P1; compound 128 pM to 10 µM; read-out: SOS-catalyzed nucleotide exchange assay (IC50 range, Grade)
T1 construct: adding equal amounts of HIS-SOS1cat (160 nM; Cytoskeleton, US); His; purchased Cytoskeleton, US
T1 sequence (Q07889 564-1049 limits assumed): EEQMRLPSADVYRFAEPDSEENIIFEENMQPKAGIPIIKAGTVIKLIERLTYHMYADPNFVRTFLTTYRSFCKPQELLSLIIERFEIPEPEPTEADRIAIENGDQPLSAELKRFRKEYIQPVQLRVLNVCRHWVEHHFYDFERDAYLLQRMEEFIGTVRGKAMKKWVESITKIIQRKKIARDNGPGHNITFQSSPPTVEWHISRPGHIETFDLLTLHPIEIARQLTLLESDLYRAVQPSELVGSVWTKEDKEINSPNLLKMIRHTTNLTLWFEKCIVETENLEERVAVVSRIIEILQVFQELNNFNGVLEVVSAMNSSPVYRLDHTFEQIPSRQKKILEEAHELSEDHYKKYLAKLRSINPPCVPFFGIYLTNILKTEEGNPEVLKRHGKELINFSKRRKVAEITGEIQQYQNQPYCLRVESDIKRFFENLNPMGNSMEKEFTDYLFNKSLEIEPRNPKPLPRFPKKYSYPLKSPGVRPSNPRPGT
Summary of the method: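 SOS1cat (HIS-tagged) preincubated 10 min at room temperature with compound (128 pM-10 µM), then GST-KRAS G12D with anti-GST terbium added; GTP loading tracked as HTRF with a DY-647P1 GTP analogue after 30 min, buffer HEPES pH 7.4. GEF-free wells for normalization; IC50 derived.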

KRAS^G12C::SOS1 = molecular target: T2, KRAS^G12C::SOS1 (Homo sapiens, UniProt Q07889); assay: KRAS G12C::SOS1 protein-protein interaction (PPI) inhibition assay (HTRF binding kit)
T2 sequence (Q07889 1-1333): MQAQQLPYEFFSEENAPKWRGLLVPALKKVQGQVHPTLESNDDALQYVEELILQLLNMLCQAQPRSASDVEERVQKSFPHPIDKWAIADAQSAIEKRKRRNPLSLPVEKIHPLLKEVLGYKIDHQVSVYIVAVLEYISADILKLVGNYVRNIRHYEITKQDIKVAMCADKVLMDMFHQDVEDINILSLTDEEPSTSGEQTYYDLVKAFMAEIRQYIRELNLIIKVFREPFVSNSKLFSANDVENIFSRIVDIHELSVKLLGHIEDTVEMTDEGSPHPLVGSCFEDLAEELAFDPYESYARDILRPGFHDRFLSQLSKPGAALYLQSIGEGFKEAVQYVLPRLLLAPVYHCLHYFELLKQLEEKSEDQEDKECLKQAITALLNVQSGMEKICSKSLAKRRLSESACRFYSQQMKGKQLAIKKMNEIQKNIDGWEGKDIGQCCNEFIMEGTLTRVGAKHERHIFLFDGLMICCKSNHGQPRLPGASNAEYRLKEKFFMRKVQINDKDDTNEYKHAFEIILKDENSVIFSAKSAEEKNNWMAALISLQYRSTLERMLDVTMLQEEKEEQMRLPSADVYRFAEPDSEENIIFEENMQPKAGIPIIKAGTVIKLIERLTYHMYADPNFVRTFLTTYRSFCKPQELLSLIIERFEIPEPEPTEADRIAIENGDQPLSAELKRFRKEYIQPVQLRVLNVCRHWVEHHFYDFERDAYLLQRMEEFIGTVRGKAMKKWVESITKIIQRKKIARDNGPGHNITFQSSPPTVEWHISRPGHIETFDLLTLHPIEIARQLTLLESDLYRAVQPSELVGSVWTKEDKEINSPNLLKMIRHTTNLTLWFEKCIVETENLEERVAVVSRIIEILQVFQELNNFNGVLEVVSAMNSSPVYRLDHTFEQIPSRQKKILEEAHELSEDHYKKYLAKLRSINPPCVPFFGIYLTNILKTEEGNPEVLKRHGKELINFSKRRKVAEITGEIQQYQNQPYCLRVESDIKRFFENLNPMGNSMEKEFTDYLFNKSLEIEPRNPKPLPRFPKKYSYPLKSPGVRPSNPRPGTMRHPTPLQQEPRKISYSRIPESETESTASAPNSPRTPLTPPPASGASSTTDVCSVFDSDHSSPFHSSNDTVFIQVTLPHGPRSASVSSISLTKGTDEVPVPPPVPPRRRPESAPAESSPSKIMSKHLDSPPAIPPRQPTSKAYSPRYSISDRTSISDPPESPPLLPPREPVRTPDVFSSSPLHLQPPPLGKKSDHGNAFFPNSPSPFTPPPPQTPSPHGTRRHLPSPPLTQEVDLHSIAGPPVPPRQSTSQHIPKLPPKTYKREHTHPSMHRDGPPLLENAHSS

| Molecule | IC50 (SOS1) [nM] | IC50 (KRAS^G12C::SOS1) [nM] |
| --- | --- | --- |
| C[C@@H](NC(=O)c1ccc(=O)n(C2=CCOCC2)n1)c1cc(N)cc(C(F)(F)F)c1 [Example 128, N-[(1R)-1-[3-amino-5-(trifluoromethyl)phenyl]ethyl]-1-(3,6-dihydro-2H-pyran-4-yl)-6-oxo-1,6-dihydropyridazine-3-carboxamide] | < 1000 | – |
| CC(=O)Nc1cccc(-n2cc(C(=O)N[C@H](C)c3cc(N)cc(C(F)(F)F)c3)ccc2=O)c1 [Example 129, N-[(1R)-1-[3-amino-5-(trifluoromethyl)phenyl]ethyl]-1-(3-acetamidophenyl)-6-oxo-1,6-dihydropyridine-3-carboxamide] | < 1000 | – |
| C[C@@H](NC(=O)c1ccc(=O)n(-c2cccc(NC(=O)C3CC3)c2)c1)c1cc(N)cc(C(F)(F)F)c1 [Example 130, N-[(1R)-1-[3-amino-5-(trifluoromethyl)phenyl]ethyl]-1-(3-cyclopropaneamidophenyl)-6-oxo-1,6-dihydropyridine-3-carboxamide] | < 1000 | – |
| CNCc1ccc(Cl)cc1-c1cnc([C@@H](C)NC(=O)c2ccc(=O)n(-c3ccccc3F)n2)s1 [Example 137, N-[(1R)-1-[5-[5-chloro-2-(methylaminomethyl)phenyl]thiazol-2-yl]ethyl]-1-(2-fluorophenyl)-6-oxo-pyridazine-3-carboxamide] | < 1000 | – |
| CNCc1ccc(Cl)cc1-c1cnc([C@@H](C)NC(=O)c2ccc(=O)n(-c3ccccc3F)c2)s1 [Example 138, N-[(1R)-1-[5-[5-chloro-2-(methylaminomethyl)phenyl]thiazol-2-yl]ethyl]-1-(2-fluorophenyl)-6-oxo-pyridine-3-carboxamide] | < 1000 | – |
| COc1ccc(-n2cc(C(=O)N[C@H](C)c3cccc(C(F)(F)CO)c3F)ccc2=O)c(F)c1OC [Example 140, N-[(1R)-1-[3-(1,1-difluoro-2-hydroxy-ethyl)-2-fluoro-phenyl]ethyl]-1-(2-fluoro-3,4-dimethoxy-phenyl)-6-oxo-pyridine-3-carboxamide] | < 1000 | < 1000 |
| C[C@@H](NC(=O)c1ccc(=O)n(-c2cccnc2F)n1)c1cccc(C(F)(F)CO)c1F [Example 141, N-[(1R)-1-[3-(1,1-difluoro-2-hydroxy-ethyl)-2-fluorophenyl]ethyl]-1-(2-fluoro-3-pyridyl)-6-oxo-pyridazine-3-carboxamide] | < 1000 | < 1000 |
| CC(C)Oc1ccc(-n2nc(C(=O)N[C@H](C)c3cc(N)cc(C(F)(F)F)c3)ccc2=O)cc1 [Example 142, N-[(1R)-1-[3-amino-5-(trifluoromethyl)phenyl]ethyl]-1-(4-isopropoxyphenyl)-6-oxo-pyridazine-3-carboxamide] | < 1000 | < 1000 |
| C[C@@H](NC(=O)c1ccc(=O)n(-c2ccccc2OC(F)F)n1)c1cccc(C(F)(F)CO)c1F [Example 143, N-[(1R)-1-[3-(1,1-difluoro-2-hydroxy-ethyl)-2-fluoro-phenyl]ethyl]-1-[2-(difluoromethoxy)phenyl]-6-oxo-pyridazine-3-carboxamide] | < 1000 | < 1000 |
| C[C@@H](NC(=O)c1ccc(=O)n(-c2ccccc2F)n1)c1cccc(I)c1F [Example 144, N-[(1R)-1-(2-fluoro-3-iodo-phenyl)ethyl]-1-(2-fluorophenyl)-6-oxo-pyridazine-3-carboxamide] | 1000 to 10000 | < 1000 |
| C[C@@H](NC(=O)c1ccc(=O)n(-c2cccnc2F)c1)c1cc(N)cc(C(F)(F)F)c1 [Example 148, N-[(1R)-1-[3-amino-5-(trifluoromethyl)phenyl]ethyl]-1-(2-fluoro-3-pyridyl)-6-oxo-pyridine-3-carboxamide] | > 10000 | > 10000 |
| C[C@@H](NC(=O)c1ccc(=O)n(-c2cccc(-c3ccnn3C(F)F)c2)n1)c1cc(N)cc(C(F)(F)F)c1 [Example 149, N-[(1R)-1-[3-amino-5-(trifluoromethyl)phenyl]ethyl]-1-[3-[2-(difluoromethyl)pyrazol-3-yl]phenyl]-6-oxo-pyridazine-3-carboxamide] | < 1000 | < 1000 |
| C[C@@H](NC(=O)c1ccc(=O)n(-c2cccc(-c3ccnn3C(F)F)c2)n1)c1cccc(C(F)(F)CO)c1F [Example 150, N-[(1R)-1-[3-(1,1-difluoro-2-hydroxy-ethyl)-2-fluoro-phenyl]ethyl]-1-[3-[2-(difluoromethyl)pyrazol-3-yl]phenyl]-6-oxo-pyridazine-3-carboxamide] | < 1000 | < 1000 |
| COc1ccc(-n2nc(C(=O)N[C@H](C)c3cccc(C(F)(F)CO)c3F)ccc2=O)c(OC)c1 [Example 151, N-[(1R)-1-[3-(1,1-difluoro-2-hydroxy-ethyl)-2-fluoro-phenyl]ethyl]-1-(2,4-dimethoxyphenyl)-6-oxo-pyridazine-3-carboxamide] | < 1000 | < 1000 |
| COc1ccc(-n2nc(C(=O)N[C@H](C)c3cc(N)cc(C(F)(F)F)c3)ccc2=O)c(F)c1 [Example 152, N-[(1R)-1-[3-amino-5-(trifluoromethyl)phenyl]ethyl]-1-(2-fluoro-4-methoxy-phenyl)-6-oxo-pyridazine-3-carboxamide] | < 1000 | < 1000 |
| COc1ccc(-n2nc(C(=O)N[C@H](C)c3cc(N)cc(C(F)(F)F)c3)ccc2=O)c(OC)c1 [Example 153, N-[(1R)-1-[3-amino-5-(trifluoromethyl)phenyl]ethyl]-1-(2,4-dimethoxyphenyl)-6-oxo-pyridazine-3-carboxamide] | < 1000 | < 1000 |
| C[C@@H](NC(=O)c1ccc(=O)n(-c2cccc3cc[nH]c23)n1)c1cc(N)cc(C(F)(F)F)c1 [Example 155, N-[(1R)-1-[3-amino-5-(trifluoromethyl)phenyl]ethyl]-1-(1H-indole-7-yl)-6-oxo-pyridazine-3-carboxamide] | 1000 to 10000 | < 1000 |
| C[C@@H](NC(=O)c1ccc(=O)n(-c2ccccc2CO)n1)c1cc(N)cc(C(F)(F)F)c1 [Example 156, N-[(1R)-1-[3-amino-5-(trifluoromethyl)phenyl]ethyl]-1-[2-(hydroxymethyl)phenyl]-6-oxo-pyridazine-3-carboxamide] | 1000 to 10000 | 1000 to 10000 |
| COCc1ccccc1-n1nc(C(=O)N[C@H](C)c2cc(N)cc(C(F)(F)F)c2)ccc1=O [Example 157, N-[(1R)-1-[3-amino-5-(trifluoromethyl)phenyl]ethyl]-1-[2-(methoxymethyl)phenyl]-6-oxo-pyridazine-3-carboxamide] | 1000 to 10000 | 1000 to 10000 |
| C[C@@H](NC(=O)c1ccc(=O)n(-c2cccc(F)c2)n1)c1cc(N)cc(C(F)(F)F)c1 [Example 158, N-[(1R)-1-[3-amino-5-(trifluoromethyl)phenyl]ethyl]-1-(3-fluorophenyl)-6-oxo-pyridazine-3-carboxamide] | < 1000 | < 1000 |
| (R)-1-([1,1'-biphenyl]-4-yl)-N-(1-(3-amino-5-(trifluoromethyl)phenyl)ethyl)-6-oxo-1,6-dihydropyridazine-3-carboxamide [Example 24] | 1000 to 10000 | – |
